Source: article PMC9268102, “Design, Synthesis and Biological Evaluation of 1,3,5-Triazine Derivatives Targeting hA1 and hA3 Adenosine Receptor” (Molecules, 2022)
Several values for one entry are separate records, joined by “and”; a condition that tells them apart may be missing. Equal values may be shown once.

Legend:
[1] = molecular target: T1, hA2A AR (Homo sapiens, UniProt P29274); assay: Radioligand competition binding assay at hA2A AR; details: 10 μM compound, [3H]ZM241385, Hela cells; for inhibition at 10 µM: read-out: Percentage Inhibition (%) at 10 μM, hA2A AR
T1 construct: expressed in transfected cells; host or cells: Hela-A2A cell line
T1 sequence (P29274 whole entry): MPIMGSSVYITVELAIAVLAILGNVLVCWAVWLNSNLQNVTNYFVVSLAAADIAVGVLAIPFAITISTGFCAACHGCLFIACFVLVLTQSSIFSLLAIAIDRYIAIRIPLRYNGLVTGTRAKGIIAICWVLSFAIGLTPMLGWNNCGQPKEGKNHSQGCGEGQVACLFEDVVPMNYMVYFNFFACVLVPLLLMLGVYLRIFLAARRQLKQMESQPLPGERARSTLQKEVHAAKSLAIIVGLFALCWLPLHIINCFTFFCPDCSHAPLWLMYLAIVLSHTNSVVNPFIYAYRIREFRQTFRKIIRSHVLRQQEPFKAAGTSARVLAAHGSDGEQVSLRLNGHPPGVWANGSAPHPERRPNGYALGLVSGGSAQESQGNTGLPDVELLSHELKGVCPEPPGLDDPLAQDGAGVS
Procedure: (§1) All the synthesized compounds were screened with radioligand binding assays at hARs. First, the percentage of inhibition was measured by treatment of each hAR subtype with 10 μM of each compound (Table 1).
(§2) hA1, hA2A, and hA3 AR competition binding experiments were carried out in a multiscreen GF/C 96-well plate (Millipore, Madrid, Spain) pretreated with binding buffer (Hepes 20 mM, NaCl 100 mM, MgCl2 10 mM, 2 U/mL adenosine deaminase, pH = 7.4 for hA1 AR; Tris-HCl 50 mM, EDTA 1 mM, MgCl2 10 mM, 2 U/mL adenosine deaminase, pH = 7.4 for hA2A AR; and Tris-HCl 50 mM, EDTA 1 mM, MgCl2 5 mM, 2 U/mL adenosine deaminase, pH = 7.4 for hA3 AR, respectively). In each well was incubated 5 µg of membranes from Euroscreen CHO-A1 cell line, 5µg of membranes from Hela-A2A cell line, or 30µg of membranes from Hela-A3 cell line and prepared in laboratory: 1 nM [^3H]-DPCPX (140 Ci/mmol, 1 mCi/Ml, Perkin Elmer NET974001MC) for hA1 AR; 1 nM [^3H]-ZM241385 (50 Ci/mmol, 1 mCi/mL, ARC-ITISA 0884) for hA2A AR; and 10 nM [^3H]-NECA (29.6 Ci/mmol, 1 mCi/mL, Perkin Elmer NET811250UC) for hA3 AR, respectively; and the compounds studied according to standard protocol. Non-specific binding was determined in the presence of R-PIA 10 µM (Sigma P4532) for hA1 AR; of NECA 50 µM (Sigma E2387) for hA2A AR; and of R-PIA 100 µM (Sigma P4532) for hA3 AR, respectively. The reaction mixture (Vt: 200 µL/well) was incubated at 25 °C for 60 min (hA1 AR), 30min (hA2A AR), or 180min (hA3 AR); whereafter it was filtered and washed four times (hA1 and hA2A AR) or six times (hA3 AR) with 250 μL wash buffer (Hepes 20 mM, NaCl 100 mM, MgCl2 10 mM pH = 7.4, for hA1 AR; Tris-HCl 50 mM, EDTA 1 mM, MgCl2 10 mM, pH = 7.4, for hA2A AR; and Tris-HCl 50mM pH = 7.4, for hA3 AR, respectively) before being measured in a microplate beta scintillation counter (MicrobetaTrilux, PerkinElmer, Madrid, Spain).

[2] = molecular target: T2, hA1 AR (Homo sapiens, UniProt P30542); assay: Radioligand competition binding assay at hA1 AR; details: for Percentage Inhibition (%) at 10 μM, hA1 AR / inhibition at 10 µM: 10 μM compound; for Percentage Inhibition (%) at 10 μM, hA1 AR / inhibition at 10 µM / Ki: [3H]DPCPX, CHO cells; for inhibition at 10 µM: read-out: Percentage Inhibition (%) at 10 μM, hA1 AR; for Selectivity (hA1 AR:hA3 AR): ratio of Ki hA1 AR to Ki hA3 AR
T2 construct: host or cells: CHO-A1 (CHO cells expressing hA1 AR)
T2 sequence (P30542 1-326): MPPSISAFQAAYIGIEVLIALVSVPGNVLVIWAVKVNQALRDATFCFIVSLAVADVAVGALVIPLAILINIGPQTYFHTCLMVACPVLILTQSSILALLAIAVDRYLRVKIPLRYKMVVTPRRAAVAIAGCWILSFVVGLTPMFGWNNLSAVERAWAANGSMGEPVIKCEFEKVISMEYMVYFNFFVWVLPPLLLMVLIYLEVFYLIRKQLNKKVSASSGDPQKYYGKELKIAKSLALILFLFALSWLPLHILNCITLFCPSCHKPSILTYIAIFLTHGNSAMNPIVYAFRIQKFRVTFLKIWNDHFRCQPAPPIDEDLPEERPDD
Procedure: as §1, §2

[3] = molecular target: T3, hA2B AR (Homo sapiens, UniProt P29275); assay: Radioligand competition binding assay at hA2B AR; details: 10 μM compound; [3H]DPCPX; HEK-293 cells; read-out: Percentage Inhibition (%) at 10 μM, hA2B AR
T3 construct: host or cells: HEK-A2B (HEK-293T-A2B) cell line
T3 sequence (P29275 1-332): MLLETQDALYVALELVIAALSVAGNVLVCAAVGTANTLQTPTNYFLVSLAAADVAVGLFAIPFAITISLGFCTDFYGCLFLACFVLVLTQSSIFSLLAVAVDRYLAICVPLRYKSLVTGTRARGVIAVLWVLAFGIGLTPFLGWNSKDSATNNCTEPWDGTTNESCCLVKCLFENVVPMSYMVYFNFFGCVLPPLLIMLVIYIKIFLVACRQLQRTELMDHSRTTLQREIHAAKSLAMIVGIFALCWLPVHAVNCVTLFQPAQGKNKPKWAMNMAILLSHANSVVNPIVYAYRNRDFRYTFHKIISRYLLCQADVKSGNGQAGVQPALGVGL
Procedure: as §1
hA2B AR competition binding experiments were carried out in a multiscreen GF/C 96-well plate. In each well was incubated 25 µg of membranes from Euroscreen HEK-A2B cell line and prepared in laboratory, 25 nM [^3H]-DPCPX (140 Ci/mmol, 1 mCi/mL, Perkin Elmer NET974001MC) and compounds studied according to standard protocol. Non-specific binding was determined in the presence of NECA 1000 µM (Sigma E2397). The reaction mixture (Vt: 250 µL/well) was incubated at 25°C for 30 min, 200 µL was transferred to GF/C 96-well plate (Millipore, Madrid, Spain), and pretreated with binding buffer (Tris-HCl 50 Mm, EDTA 1 mM, MgCl2 5 mM, Bacitracin […], adenosine deaminase 2 U/Ml, pH = 6.5). It was then filtered and washed four times with 250 μL wash buffer (Tris-HCl 50 mM, EDTA 1 mM, MgCl2 5 mM, pH = 6.5), before being measured in a microplate beta scintillation counter (MicrobetaTrilux, PerkinElmer, Madrid, Spain).

[4] = molecular target: T4, hA3 AR (Homo sapiens, UniProt P0DMS8); assay: Radioligand competition binding assay at hA3 AR; design: expressed in transfected cells; host or cells: Hela-A3 cell line; details: for Percentage Inhibition (%) at 10 μM, hA3 AR / inhibition at 10 µM: 10 μM compound; for Percentage Inhibition (%) at 10 μM, hA3 AR / inhibition at 10 µM / Ki: [3H]NECA; for inhibition at 10 µM: read-out: Percentage Inhibition (%) at 10 μM, hA3 AR
T4 sequence (P0DMS8 1-318): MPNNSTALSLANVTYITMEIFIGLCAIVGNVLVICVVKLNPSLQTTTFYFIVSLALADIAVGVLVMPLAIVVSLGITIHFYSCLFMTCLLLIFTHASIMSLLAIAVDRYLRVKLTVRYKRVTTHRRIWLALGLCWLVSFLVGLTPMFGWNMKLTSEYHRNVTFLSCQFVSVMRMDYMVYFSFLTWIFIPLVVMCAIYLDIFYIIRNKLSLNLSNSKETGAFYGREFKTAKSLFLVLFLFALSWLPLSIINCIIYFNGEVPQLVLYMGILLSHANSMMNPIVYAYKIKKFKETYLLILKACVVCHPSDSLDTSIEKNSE
Procedure: as §1, §2

[5] = compared with hydroxyl compound 9a

| inhibition at 10 µM [1] [%] | Percentage Inhibition (%) at 10 μM, hA1 AR [2] [%] | inhibition at 10 µM [2] [%] | Ki [2] [nM] | Improvement of binding affinity at hA1 AR [2, 5] | Selectivity (hA1 AR:hA3 AR) [2] | inhibition at 10 µM [3] [%] | Percentage Inhibition (%) at 10 μM, hA3 AR [4] [%] | inhibition at 10 µM [4] [%] | Ki [4] [nM] | Improvement of binding affinity at hA3 AR [4, 5] [fold] | Percentage Inhibition (%) at 10 μM, hA2A AR ([1]; 10 µM) [%] | SMILES |
| --- | --- | --- | --- | --- | --- | --- | --- | --- | --- | --- | --- | --- |
| 83 ± 1 | 95 ± 1 | > 90 | 78.1 | about 2 fold | 5.87 | 65 ± 2 | 97 ± 1 | > 90 | 13.3 | ~5 |  | COc1ccc(-c2nc(N)nc(Nc3ccc(OC)c(F)c3)n2)cc1 [Compound 11a, N^2-(3-fluoro-4-methoxyphenyl)-6-(4-methoxyphenyl)-1,3,5-triazine-2,4-diamine] |
| 49 ± 1 | 98 ± 1 | > 90 | 98.3 |  | 1.7 and 1.74 | 56 ± 1 | 95 ± 4 | > 90 | 56.6 |  |  | COc1ccc(Nc2nc(N)nc(-c3ccc(F)cc3)n2)cc1F [Compound 11b, N^2-(3-fluoro-4-methoxyphenyl)-6-(4-fluorophenyl)-1,3,5-triazine-2,4-diamine] |
| > 95 | 99 ± 1 | > 95 | 57.9 |  | 0.0875 | 90 ± 1 | 95 ± 1 | > 95 | 661 |  | 94 ± 3 | COc1cc(Nc2nc(N)nc(-c3ccc(O)cc3)n2)ccc1Cl [Compound 9c, 4-{4-amino-6-[(4-chloro-3-methoxyphenyl)amino]-1,3,5-triazin-2-yl}phenol] |
